Results on one substance are retold here after patent US9233144B2, “Tyrosine kinase receptor TYRO3 as a therapeutic target in the treatment of cancer” (INSTITUT CURIE, priority 2008, dated 2016).

Data set [1] deals with TYRO3. The data set is described as follows: Efficiency of TYRO3 silencing after siRNA transfection (mRNA and western-blot). Conditions: MGH-U3, KK47, J82 and RT112 cells; 50 nM siRNA; 72 hours after transfection. Format: cell-based, human. Here is the method: Cells were transfected with 50 nM siRNA (siRNA anti-TYRO3 (SEQ ID No. 1) or control siRNA (scramble, SEQ ID No. 2)) and the efficiency of TYRO3 silencing was assessed 72 hours after transfection by western-blot.

In data set [2] the test system is MGH-U3, KK47, J82 and RT112 cells. Put plainly: Cell viability after siRNA transfection (trypan blue count). The class given is cell-based, human. Conditions: 50 nM siRNA, 72 hours after transfection. Here is the method: (§1) After transfection as described in the legend of FIG. 4, cells were treated with trypsin 72 hours after transfection, stained with trypan blue and viable cells were counted in triplicate, using a Malassez hematocytometer. Results are the means+/−SD of two independent experiments carried out in triplicate.
(§2) In order to investigate the role of TYRO3 in cell growth and tumorigenic properties, TYRO3 expression was blocked using RNA interference technology or TYRO3 activity was inhibited using a blocking antibody directed against the extracellular domain of TYRO3 or a soluble receptor consisting of the recombinant extracellular domain of TYRO3 produced in bacteria. Two cell lines expressing TYRO3 (MGH-U3, KK47), two cell lines expressing both TYRO3 and GAS6 (J82, RT112) and one control breast cancer derived cell line presenting a very low TYRO3 expression level (MCF-7) were used. It was shown by western blot using an anti-phosphotyrosine antibody after TYRO3 immunoprecipitation that in each type of cell line (expressing or not GAS6), TYRO was activated (data not shown).

The next data set concerns MCF7 cells. Put plainly: Cell viability after siRNA transfection, control cell line with very low TYRO3 expression. Format: cell-based, human. Here is the method:
as §1, §2

For data set [3], the system named is bladder cancer cells. The data set is described as follows: TUNEL assay on transfected bladder cancer cells. Format: cell-based, human. Conditions: 50 nM siRNA; 72 hours after transfection. Here is the method: 3×10^4 cells per well were seeded on a glass slide in a 24-well plate and transfected with 50 nM siRNA. DNA fragmentation was evaluated 72 hours after transfection, using a TUNEL (deoxynucleotidyl transferase (Tdt)-mediated nick-end labeling) assay detection Kit (Roche Diagnostic, Meylan, France) according to the manufacturer's instructions. The inventors analyzed 600 cells under a light microscope, determining the proportion of labeled cells.

In data set [4] the test system is bladder cancer cells. Put plainly: Cell cycle analysis by flow-cytometry 72 h post siRNA transfection. Format: cell-based, human. Here is the method: Results were analyzed using Fisher test, *** p<0.001, * 0.01<p<0.05
Data set [5] relates to MGH-U3, KK47, RT112 and J82 colonies. Put plainly: Anchorage-independent colony formation in soft agar. The class given is cell-based, human. Conditions: 50 nM siRNA, two weeks. On the procedure:
2.10^4 50 nM siRNA-transfected cells in DMEM supplemented with 10% FCS and 0.3% agar, were added to triplicate wells containing medium and 0.8% agar on 12-well plates. The plates were incubated for two weeks and colonies with diameters greater than 50 μm were scored as positive, using a phase-contrast microscope equipped with a measuring grid. Results are the means+/−SD of two independent experiments carried out in triplicate.

A further data set deals with MGH-U3 xenografts. Put plainly: Growth of MGH-U3 xenografts, siRNA treatment. The class given is in vivo, athymic nude mice. On the procedure:
Tumor-bearing mice were treated three times a week by intraperitoneal injection of 4 μg siRNA (control or TYRO3) (6 mice and 12 tumors per group) (The first injection corresponds to day 0). Tumor volume variations are represented on the graph of FIG. 12A. (Wilcoxon rank sum test: *, 0.05<p<0.01, **, 0.01<p<0.001, ***, p<0.001) Inset are pictures of representative tumors observed at the end of the treatment. The upper line tumors are those of TYRO3 siRNA treated mice. The middle line tumors are those of control siRNA treated mice. The lower line tumors are those of PBS treated mice. Tumors were weighted at the end of the experiment (FIG. 12B).
The role of this gene in bladder cancer cell growth in vivo was studied. J82 and MGH-U3 cells were implanted subcutaneously in athymic nude mice. Once tumors were established, mice were randomly selected for treatment with control or TYRO3-specific siRNAs. For J82 xenografts, two weeks after the beginning of treatment only three tumors out of 12 were still observed (FIGS. 11A and 11B). For MGH-U3 xenografts, after 21 days of treatment, tumor volume was 70% lower in mice treated with TYRO3 siRNA than in mice treated with control siRNA (Wilcoxon rank-sum test, p<0.001) (FIGS. 12A and 12B).

The test system of data set [6] is TYRO3. Put plainly: TYRO3 mRNA levels in MGH-U3 xenografts by Q-RT-PCR. Format: in vivo, athymic nude mice. Conditions: 3 days after the last siRNA injection, Student's t-test p<0,001. The source says:
FIG. 13 is a graph showing TYRO3 mRNA levels for MGH-U3 xenografts, 3 days after the last siRNA injection, divided by TBP (TATA binding protein) mRNA levels+/−SD in treated and control tumors, as assessed by Q-RT-PCR.

[7] abbreviates: siRNA treated xenografts, data not shown.

As for “TYRO3 siRNA: siRNA anti-TYRO3 comprising the sequence of SEQ ID No. 1 (GGUGUGCCAUUUUUCACAGTT; chemistry not given here)”, the “inhibition of TYRO3 mRNA and protein levels” value with TYRO3 [1] is 80-90%. Besides, the “viable cells versus control siRNA” value in data set [2] is “fewer viable”. For the same substance, the “effect on viable cells” value with MCF7 cells was “no effect”. Moreover, the “apoptotic rate (TUNEL)” value in the data set on bladder cancer cells [3] is recorded as “increased apoptotic rate”. Also, the “change in cell-cycle progression” value in the data set on bladder cancer cells [4] is “significant but low change”. The “viable colonies in soft agar assays” value in data set [5] is given as “fewer viable”. Moreover, the “tumor volume lower than in mice treated with control siRNA” value in the data set on MGH-U3 xenografts (MGH-U3 xenografts, after 21 days of treatment, 4 μg siRNA intraperitoneal three times a week, p<0.001) is on record as 70%. In the data set on MGH-U3 xenografts (setting [7]), the “apoptosis in treated tumors (TUNNEL analysis)” value is “increase apoptosis”; the “histological difference between treated and control tumors” value was “No histological difference”. In addition, in the data set with TYRO3 [6], the “TYRO3 mRNA levels in tumors” value is “significant decrease”.
